Measured values as given in ChEMBL document CHEMBL1201862, “PubChem BioAssay data set” (2004).
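Each compound was tested at five concentrations against cells in 96-well plates for 48 hours. Abbreviation: GI50, concentration required for 50% inhibition of growth.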 Activity calls are given as the source filed them. Cut-off read from the data, not from the text of the source: active = GI50 up to about 1.1 µM and inactive = higher.

Tests used:
Assay in all cases: NCI anticancer screen, dose series, 48 h
[1] = tested on: TK-10
[2] = tested on: IGROV-1
[3] = tested on: Malme-3M
[4] = tested on: NCI-H522
[5] = tested on: BT-549
[6] = tested on: NCI-H23
[7] = tested on: OVCAR-4
[8] = tested on: SK-MEL-28
[9] = tested on: RXF 393
[10] = tested on: UACC-257
[11] = tested on: A498
[12] = tested on: HOP-62
[13] = tested on: MDA-MB-231
[14] = tested on: T47D
[15] = tested on: HCC 2998
[16] = tested on: SF-539
[17] = tested on: SK-MEL-2
[18] = tested on: OVCAR-8
[19] = tested on: M14
[20] = tested on: NCI-H226
[21] = tested on: HCT-15
[22] = tested on: HT-29
[23] = tested on: U-251
[24] = tested on: MDA-MB-435
[25] = tested on: HL-60
[26] = tested on: A549
[27] = tested on: KM12
[28] = tested on: 786-0
[29] = tested on: K562
[30] = tested on: EKVX
[31] = tested on: DU-145
[32] = tested on: NCI/ADR-RES
[33] = tested on: OVCAR-3
[34] = tested on: SNB-19
[35] = tested on: SK-OV-3
[36] = tested on: RPMI-8226
[37] = tested on: SW-620
[38] = tested on: COLO 205
[39] = tested on: UO-31
[40] = tested on: NCI-H460
[41] = tested on: MCF7
[42] = tested on: OVCAR-5
[43] = tested on: ACHN
[44] = tested on: SR
[45] = tested on: MOLT-4
[46] = tested on: SNB-75
[47] = tested on: HCT-116
[48] = tested on: SN12C
[49] = tested on: SF-295
[50] = tested on: CCRF-CEM
[51] = tested on: SF-268
[52] = tested on: SK-MEL-5
[53] = tested on: MDA-N
[54] = tested on: UACC-62
[55] = tested on: LOX IMVI
[56] = tested on: Hs-578T
[57] = tested on: HOP-92
[58] = tested on: PC-3

## O=C(O)c1ccccc1/C=C1\Cc2cc3c(cc2C1=O)CCC3
[1]
  GI50: 17.8 µM (inactive)
[2]
  GI50: 23.6 µM (inactive)
[3]
  GI50: 26.9 µM (inactive)
[4]
  GI50: 18.9 µM (inactive)
[5]
  GI50: 56.9 µM (inactive)
[6]
  GI50: 18.1 µM (inactive)
[7]
  GI50: 28.1 µM (inactive)
[8]
  GI50: 50.5 µM (inactive)
[9]
  GI50: 21.3 µM (inactive)
[10]
  GI50: 26.5 µM (inactive)
[11]
  GI50: 30.8 µM (inactive)
[12]
  GI50: 25.3 µM (inactive)
[13]
  GI50: 20.3 µM (inactive)
[14]
  GI50: 9.23 µM (inactive)
[15]
  GI50: 27.6 µM (inactive)
[16]
  GI50: 29.1 µM (inactive)
[17]
  GI50: 23.4 µM (inactive)
[18]
  GI50: 26.3 µM (inactive)
[19]
  GI50: 23.5 µM (inactive)
[20]
  GI50: 24 µM (inactive)
[21]
  GI50: 16.3 µM
[22]
  GI50: 19.2 µM (inactive)
[23]
  GI50: 30.1 µM (inactive)
[24]
  GI50: 12.7 µM (inactive)
[25]
  GI50: 6.59 µM (inactive)
[26]
  GI50: 30.1 µM (inactive)
[27]
  GI50: 19.2 µM (inactive)
[28]
  GI50: 29 µM (inactive)
[29]
  GI50: 17.1 µM (inactive)
[30]
  GI50: 32.1 µM (inactive)
[31]
  GI50: 25.3 µM (inactive)
[32]
  GI50: 17.3 µM (inactive)
[33]
  GI50: 31.2 µM (inactive)
[34]
  GI50: 26.7 µM (inactive)
[35]
  GI50: 36.2 µM (inactive)
[36]
  GI50: 21.1 µM (inactive)
[37]
  GI50: 21.8 µM (inactive)
[38]
  GI50: 21.9 µM (inactive)
[39]
  GI50: 33.9 µM (inactive)
[40]
  GI50: 24.2 µM (inactive)
[41]
  GI50: 20.7 µM (inactive)
[42]
  GI50: 57.1 µM (inactive)
[43]
  GI50: 34.4 µM (inactive)
[44]
  GI50: 4.72 µM (inactive)
[45]
  GI50: 17.4 µM (inactive)
[46]
  GI50: 3.57 µM (inactive)
[47]
  GI50: 27.9 µM (inactive)
[48]
  GI50: 20.4 µM (inactive)
[49]
  GI50: 24 µM (inactive)
[50]
  GI50: 18.8 µM (inactive)
[51]
  GI50: 35.3 µM (inactive)
[52]
  GI50: 18.1 µM (inactive)
[53]
  GI50: 11.9 µM (inactive)
[54]
  GI50: 16.9 µM (inactive)
[55]
  GI50: 14.9 µM (inactive)

## CC1(C)O[C@@H]2[C@@H](COC(=O)c3ccccc3)C[C@@H](C#N)[C@@H]2O1
[1]
  GI50: > 100 µM (inactive)
[2]
  GI50: > 100 µM (inactive)
[3]
  GI50: > 100 µM (inactive)
[4]
  GI50: > 100 µM (inactive)
[5]
  GI50: > 100 µM (inactive)
[6]
  GI50: > 100 µM (inactive)
[7]
  GI50: > 100 µM (inactive)
[8]
  GI50: > 100 µM (inactive)
[9]
  GI50: > 100 µM (inactive)
[11]
  GI50: > 100 µM (inactive)
[12]
  GI50: > 100 µM (inactive)
[13]
  GI50: > 100 µM (inactive)
[14]
  GI50: > 100 µM (inactive)
[15]
  GI50: > 100 µM (inactive)
[16]
  GI50: > 100 µM (inactive)
[18]
  GI50: > 100 µM (inactive)
[19]
  GI50: > 100 µM (inactive)
[20]
  GI50: > 100 µM (inactive)
[56]
  GI50: 29.2 µM (inactive)
[21]
  GI50: > 100 µM
[22]
  GI50: > 100 µM (inactive)
[23]
  GI50: > 100 µM (inactive)
[24]
  GI50: > 100 µM (inactive)
[25]
  GI50: > 100 µM (inactive)
[26]
  GI50: > 100 µM (inactive)
[27]
  GI50: > 100 µM (inactive)
[28]
  GI50: > 100 µM (inactive)
[29]
  GI50: > 100 µM (inactive)
[31]
  GI50: > 100 µM (inactive)
[32]
  GI50: > 100 µM (inactive)
[33]
  GI50: > 100 µM (inactive)
[34]
  GI50: > 100 µM (inactive)
[35]
  GI50: > 100 µM (inactive)
[36]
  GI50: > 100 µM (inactive)
[57]
  GI50: > 100 µM (inactive)
[37]
  GI50: > 100 µM (inactive)
[38]
  GI50: > 100 µM (inactive)
[39]
  GI50: > 100 µM (inactive)
[40]
  GI50: > 100 µM (inactive)
[41]
  GI50: > 100 µM (inactive)
[42]
  GI50: > 100 µM (inactive)
[43]
  GI50: > 100 µM (inactive)
[44]
  GI50: > 100 µM (inactive)
[45]
  GI50: > 100 µM (inactive)
[46]
  GI50: > 100 µM (inactive)
[47]
  GI50: > 100 µM (inactive)
[48]
  GI50: > 100 µM (inactive)
[49]
  GI50: > 100 µM (inactive)
[50]
  GI50: > 100 µM (inactive)
[51]
  GI50: > 100 µM (inactive)
[52]
  GI50: > 100 µM (inactive)
[58]
  GI50: > 100 µM (inactive)
[54]
  GI50: > 100 µM (inactive)
[55]
  GI50: > 100 µM (inactive)
